Measurements published in patent US20190119282A1, “IMIDAZOPYRIDAZINES USEFUL AS INHIBITORS OF THE PAR-2 SIGNALING PATHWAY” (Vertex Pharmaceuticals Incorporated, priority 2013, published 2019).

Experiments:
[1] = biological target: T1, PAR2 (HT-29 cells, SLIGKV activation) (Homo sapiens, UniProt P55085); test: Ca FLIPR TETRA assay, ANTAGONIST mode, stimulation with 8 μM SLIGKV; format: cell-based; details: HT-29 cells
T1 construct: host or cells: HT-29 cells
T1 sequence (P55085 26-397): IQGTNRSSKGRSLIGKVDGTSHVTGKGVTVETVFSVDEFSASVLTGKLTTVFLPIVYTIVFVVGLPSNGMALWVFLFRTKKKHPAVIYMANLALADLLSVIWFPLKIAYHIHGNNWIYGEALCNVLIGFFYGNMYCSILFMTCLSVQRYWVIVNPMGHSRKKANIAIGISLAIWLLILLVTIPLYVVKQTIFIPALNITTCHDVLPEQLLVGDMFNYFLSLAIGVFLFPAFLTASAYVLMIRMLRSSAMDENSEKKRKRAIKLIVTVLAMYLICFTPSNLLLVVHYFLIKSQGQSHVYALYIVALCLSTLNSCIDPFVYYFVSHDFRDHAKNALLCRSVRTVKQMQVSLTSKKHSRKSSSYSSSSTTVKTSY
Summary of the method: (§1)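 Cells plated overnight at 37 °C, 5% CO2 in 1% FBS medium; dye loading 45 min at 37 °C then 15 min r.t.; compound added from DMSO/HBSS dilution; first read for intrinsic Ca2+ activation; 30 min r.t. incubation; antagonist read after addition of the fixed activator (8 μM SLIGKV, 1 U/mL thrombin, 3.1 U/mL trypsin or 0.6 μM UTP).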

[2] = biological target: T2, PAR2 (HT-29 cells, trypsin activation) (Homo sapiens, UniProt P55085); test: Ca FLIPR TETRA assay, ANTAGONIST mode, stimulation with 3.1 U/mL trypsin; format: cell-based; details: HT-29 cells
T2 construct: host or cells: HT-29 cells
T2 sequence (P55085 26-397): T1 sequence (P55085 26-397)
Summary of the method: as §1

[3] = system: Thrombin-stimulated Ca2+ response in HT-29 cells; test: Ca FLIPR TETRA assay, ANTAGONIST mode, stimulation with 1 U/mL Thrombin; format: cell-based, human; details: Homo sapiens, HT-29 cells
Summary of the method: as §1

[4] = system: UTP-stimulated Ca2+ response in HT-29 cells; test: Ca FLIPR TETRA assay, ANTAGONIST mode, stimulation with 0.6 μM UTP; format: cell-based, human; details: Homo sapiens, HT-29 cells
Summary of the method: as §1

[5] = stimulation with 3.1 U/mL trypsin
[6] = stimulation with 1 U/mL Thrombin
[7] = antagonist mode, stimulation with 8 μM SLIGKV
[8] = antagonist mode, stimulation with 3.1 U/mL trypsin
[9] = antagonist mode, stimulation with 1 U/mL Thrombin
[10] = antagonist mode, stimulation with 0.6 μM UTP

SMILES	IC50 ([1]; stimulation with 8 μM SLIGKV) [nM]	IC50 [2, 5] [nM]	IC50 [3, 6] [nM]	IC50 ([4]; stimulation with 0.6 μM UTP) [nM]	IC50 [1, 7] [nM]	IC50 [2, 8] [nM]	IC50 [3, 9] [nM]	IC50 [4, 10] [nM]	also measured
CC(C)c1cc(-c2ccc(F)cc2)nn2cc(C(=O)N3CCN(C(=O)CC4CCCCC4)[C@@H](C)C3)nc12 [Compound I-128]	2	2	30000	31000	–	–	–	–	–
CC1(C)C(=O)NCCN1C(=O)c1cn2nc(-c3ccc(F)cc3)cc(-c3ccc(F)cc3)c2n1 [Compound I-523]	–	–	–	–	12	9.6	> 1000	> 1000	–
CC(C)(C)c1cc(-c2ccc(C(F)(F)F)cc2)nn2cc(C(=O)N3CCN(C(=O)c4ncccn4)CC3(C)C)nc12 [Compound I-399]	–	–	–	–	1.8	1.5	> 1000	> 1000	–
CC(C)c1cc(-c2ccc(F)cc2)nn2cc(C(=O)N3CCN(C#N)C(=O)C3(C)C)nc12 [Compound I-274]	–	–	–	–	2.6	4.6	> 1000	> 1000	–
Cc1cc(-c2cc(C(C)C)c3nc(C(=O)N4CCN(C(=O)c5ncccn5)CC4(C)C)cn3n2)ccc1F [Compound I-377]	–	–	–	–	19	29	> 1000	> 1000	–
CC(C)c1cc(-c2ccc(Cl)cc2)nn2cc(C(=O)N3CCNCC3(C)C)nc12 [Compound I-521]	–	–	–	–	625	480	> 1000	> 1000	–
CC1(C)CN(C(=O)c2ccncn2)CCN1C(=O)c1cn2nc(-c3ccc(F)cc3)cc(C(F)(F)F)c2n1 [Compound I-268]	–	–	–	–	64.5	104	> 1000	> 1000	–
CC(C)c1cc(-c2ccc(F)c(F)c2)nn2cc(C(=O)N3CCN(C(=O)c4ccn[nH]4)CC3(C)C)nc12 [Compound I-258]	–	–	–	–	1.7	1.9	> 1000	> 1000	–
Cc1cccc(-c2cc(C(C)(C)C)c3nc(C(=O)N4CCN(C(=O)c5ccn[nH]5)CC4(C)C)cn3n2)c1 [Compound I-404]	–	–	–	–	0.9	4.3	690	> 1000	–
C[C@H](O)C(=O)N1CCN(C(=O)c2cn3nc(-c4ccc(F)cc4)cc(C(F)(F)F)c3n2)C(C)(C)C1 [Compound I-39, (2S)-1-[4-[6-(4-Fluorophenyl)-8-(trifluoromethyl)imidazo[1,2-b]pyridazine-2-carbonyl]-3,3-dimethyl-piperazin-1-yl]-2-hydroxy-propan-1-one]	830	860	> 50000	> 50000	–	–	–	–	–
NC(=O)C1CCCCN1C(=O)c1cn2nc(-c3ccc(F)cc3)cc(C(F)(F)F)c2n1 (stereo not drawn) [Compound I-81]	6700	12000	9200	17000	–	–	–	–	–
CC(C)(C)c1cc(-c2ccc(F)cc2)nn2cc(C(=O)N3CCN(C(=O)c4n[nH]c(=O)[nH]4)CC3(C)C)nc12 [Compound I-357]	–	–	–	–	3.3	4.4	> 1000	890	–
CC(C)c1cc(-c2ccc(F)cc2)nn2cc(C(=O)N3CCN(C(=O)C4(O)CC4)[C@@H](C)C3)nc12 [Compound I-115]	100	160	> 50000	> 50000	–	–	–	–	–
CC(C)c1cc(-c2cccc(C(F)(F)F)c2)nn2cc(C(=O)N3CCN(C(=O)C(C)(C)O)CC3(C)C)nc12 [Compound I-217]	–	–	–	–	205	545	> 1000	> 1000	–
CC(C)c1cc(-c2ccc(F)cc2)nn2cc(C(=O)N3CCN(C(=O)[C@H](O)CC(C)(C)C)CC3(C)C)nc12 [Compound I-103]	0.4	0.9	> 5000	> 5000	–	–	–	–	–
Cc1n[nH]cc1C(=O)N1CCN(C(=O)c2cn3nc(-c4ccc(F)cc4)cc(C(C)C)c3n2)C(C)(C)C1 [Compound I-304]	–	–	–	–	40.3	54.3	> 1000	> 1000	–
C[C@H]1CN(C(=O)c2cn3nc(-c4ccc(F)cc4)cc(C(F)(F)F)c3n2)CCN1C(=O)OCc1cccnc1 [Compound I-12, 3-Pyridylmethyl (2S)-4-[6-(4-fluorophenyl)-8-(trifluoromethyl)-imidazo-[1,2-b]pyridazine-2-carbonyl]-2-methyl-piperazine-1-carboxylate]	84	490	7700	9200	–	–	–	–	–

SMILES	IC50 ([1]; stimulation with 8 μM SLIGKV) [nM]	IC50 [2, 5] [nM]	IC50 [3, 6] [nM]	IC50 ([4]; stimulation with 0.6 μM UTP) [nM]	IC50 [1, 7] [nM]	IC50 [2, 8] [nM]	IC50 [3, 9] [nM]	IC50 [4, 10] [nM]	also measured
Cc1cc(C(=O)N2CCN(C(=O)c3cn4nc(-c5ccc(F)c(Cl)c5)cc(C(C)(C)C)c4n3)C(C)(C)C2)[nH]n1 [Compound I-466]	–	–	–	–	0.7	1.9	> 1000	> 1000	–
Cc1cc(C(=O)N2CCN(C(=O)c3cn4nc(C5CCC(F)(F)CC5)cc(C(C)(C)C)c4n3)C(C)(C)C2)[nH]n1 [Compound I-437]	–	–	–	–	0.7	2	> 1000	> 1000	–
CN1CCN(C(=O)c2cn3nc(-c4ccc(F)cc4)cc(C(C)(C)C)c3n2)C(C)(C)C1=O [Compound I-188]	–	–	–	–	1.8	4	2500	3900	–
CC(C)c1cc(-c2ccc(Cl)cc2)nn2cc(C(=O)N3CCN(C(=O)[C@H]4C[C@@H](O)C4)CC3(C)C)nc12 [Compound I-543]	–	–	–	–	3.2	4.8	> 1000	> 1000	–
CC(C)c1cc(-c2ccc(F)cc2F)nn2cc(C(=O)N3CCNC(=O)C3(C)C)nc12 [Compound I-477]	–	–	–	–	43	93	> 1000	> 1000	–
CC(C)c1cc(-c2ccc(F)cc2)nn2cc(C(=O)N3CCN(CC(C)(C)O)C(=O)C3(C)C)nc12 [Compound I-180]	32	41	> 50000	18000	–	–	–	–	–
C[C@H]1CN(C(=O)c2cn3nc(-c4ccc(F)cc4)cc(C(F)(F)F)c3n2)CCN1C(=O)OCc1ccccn1 [Compound I-11, 2-Pyridylmethyl (2S)-4-[6-(4-fluorophenyl)-8-(trifluoromethyl)-imidazo-[1,2-b]pyridazine-2-carbonyl]-2-methyl-piperazine-1-carboxylate]	65	300	9600	> 5000	–	–	–	–	–
CC(C)C(O)C(=O)N1CCN(C(=O)c2cn3nc(-c4ccc(F)cc4)cc(C(F)(F)F)c3n2)C[C@@H]1C (stereo partly drawn) [Compound I-91]	69	1500	26000	20000	–	–	–	–	–
CC(C)c1cc(-c2ccc(F)cc2)nn2cc(C(=O)N3CCN(C(=O)C4(O)CCC4)C[C@@H]3C)nc12 [Compound I-28, [6-(4-fluorophenyl)-8-isopropyl-imidazo[1,2-b]pyridazin-2-yl]-[(2S)-4-(1-hydroxycyclobutanecarbonyl)-2-methyl-piperazin-1-yl]methanone]	8800	15000	33000	38000	–	–	–	–	–
CCc1cc(-c2ccc(F)cc2)nn2cc(C(=O)N3CCN(C(=O)[C@H](O)CC(C)C)[C@@H](C)C3)nc12 [Compound I-169]	10	17	25000	26000	–	–	–	–	–
CC(C)c1cc(-c2ccc(C(F)(F)F)c(F)c2)nn2cc(C(=O)N3CCN(C(=O)c4ccn[nH]4)CC3(C)C)nc12 [Compound I-277]	–	–	–	–	1.3	1.3	> 1000	> 1000	–
CC(C)(C)c1cc(-c2ccc(F)cc2)nn2cc(C(=O)N3CCN(C(=O)c4cccnc4)CC3(C)C)nc12 [Compound I-287]	–	–	–	–	2	2.8	630	980	–
CC(C)CCCC(=O)N1CCN(C(=O)c2cn3nc(-c4ccc(F)cc4)cc(C(C)C)c3n2)C[C@@H]1C [Compound I-139]	2	9	25000	> 500	–	–	–	–	–
CC(C)c1cc(-c2ccc(F)cc2)nn2cc(C(=O)N3CCN(C(=O)c4ccncn4)CC3(C)C)nc12 [Compound I-236]	–	–	–	–	8.2	18.6	> 1000	> 1000	–
CC(C)c1cc(-c2ccc(F)cc2)nn2cc(C(=O)N3CCN(C(=O)C4(O)CCC4)C[C@H]3C)nc12 [Compound I-178]	4800	8300	43000	14000	–	–	–	–	–
CC1(C)C(=O)NCCN1C(=O)c1cn2nc(-c3ccc(F)cc3)cc(-c3ccsc3)c2n1 [Compound I-567, 4-(6-(4-fluorophenyl)-8-(thiophen-3-yl)imidazo[1,2-b]pyridazine-2-carbonyl)-3,3-dimethylpiperazin-2-one]	–	–	–	–	–	–	–	–	IC50 ([1]; antagonist mode, 8 μM SLIGKV): 23 nM; IC50 ([2]; antagonist mode, 3.1 U/mL trypsin): 49.8 nM; IC50 ([3]; antagonist mode, 1 U/mL Thrombin): > 1000 nM; IC50 ([4]; antagonist mode, 0.6 μM UTP): > 1000 nM
